± gives the expanded uncertainty stated by the source.
Assays:
[1] = xn = mol fraction of the nth substance listed; details: 298.15 K, 100 kPa, Liquid, Vibrating tube method
[2] = 298.15 K; 100 kPa; Liquid; Vibrating tube method

Structure (SMILES): CCCCC(=O)O [pentanoic acid] + CCCCCCCCCCO
- mass density ([1]; x1 = 0.0809): 831.4 ± 1 kg/m3
- mass density ([1]; x1 = 0.1598): 837 ± 1 kg/m3
- mass density ([1]; x1 = 0.2406): 843 ± 1 kg/m3
- mass density ([1]; x1 = 0.3493): 852 ± 1 kg/m3
- mass density ([1]; x1 = 0.4405): 860.2 ± 1 kg/m3
- mass density ([1]; x1 = 0.5601): 872.3 ± 1 kg/m3
- mass density ([1]; x1 = 0.6502): 882.5 ± 1 kg/m3
- mass density ([1]; x1 = 0.7406): 893.9 ± 1 kg/m3
- mass density ([1]; x1 = 0.8504): 909.6 ± 1.1 kg/m3
- mass density ([1]; x1 = 0.9411): 924.2 ± 1.1 kg/m3
- mass density ([1]; x1 = 1): 935.1 ± 1 kg/m3

Structure (SMILES): CCCCCCCO [heptan-1-ol]
- mass density [2]: 818.7 ± 1 kg/m3

Structure (SMILES): CCCCCO [pentan-1-ol] + CCCCC(=O)O
- mass density ([1]; x2 = 0): 810.8 ± 1 kg/m3

Structure (SMILES): CCCCC(=O)O [pentanoic acid] + CCCCCCCCCO
- mass density ([1]; x1 = 0.0802): 830 ± 1 kg/m3
- mass density ([1]; x1 = 0.1604): 836.1 ± 1 kg/m3
- mass density ([1]; x1 = 0.2394): 842.8 ± 1 kg/m3
- mass density ([1]; x1 = 0.3496): 852.5 ± 1 kg/m3
- mass density ([1]; x1 = 0.4397): 861.2 ± 1 kg/m3
- mass density ([1]; x1 = 0.5605): 873.9 ± 1 kg/m3
- mass density ([1]; x1 = 0.6497): 884.3 ± 1 kg/m3
- mass density ([1]; x1 = 0.7401): 895.6 ± 1 kg/m3
- mass density ([1]; x1 = 0.8502): 911 ± 1 kg/m3
- mass density ([1]; x1 = 0.9403): 925 ± 1.1 kg/m3
- mass density ([1]; x1 = 1): 935.1 ± 1 kg/m3

Structure (SMILES): CCCCC(=O)O [pentanoic acid] + CCCCCCO
- mass density ([1]; x1 = 0.0924): 825.4 ± 1 kg/m3
- mass density ([1]; x1 = 0.1783): 835.2 ± 1 kg/m3
- mass density ([1]; x1 = 0.264): 845.1 ± 1 kg/m3
- mass density ([1]; x1 = 0.3796): 858.6 ± 1 kg/m3
- mass density ([1]; x1 = 0.4718): 869.5 ± 1 kg/m3
- mass density ([1]; x1 = 0.5914): 883.9 ± 1 kg/m3
- mass density ([1]; x1 = 0.6785): 894.5 ± 1 kg/m3
- mass density ([1]; x1 = 0.7639): 905 ± 1 kg/m3
- mass density ([1]; x1 = 0.8656): 917.8 ± 1 kg/m3
- mass density ([1]; x1 = 0.9468): 928.2 ± 1 kg/m3
- mass density ([1]; x1 = 1): 935.1 ± 1 kg/m3

Structure (SMILES): CCCCC(=O)O [pentanoic acid]
- mass density [2]: 935.1 ± 1 kg/m3

Structure (SMILES): CCCCCCCCO [octan-1-ol] + CCCCC(=O)O
- mass density ([1]; x2 = 0): 821.4 ± 1 kg/m3

Structure (SMILES): CCCCCCCCCO [nonan-1-ol] + CCCCC(=O)O
- mass density ([1]; x2 = 0): 824 ± 1 kg/m3

Structure (SMILES): CCCCC(=O)O [pentanoic acid] + CCCCCCCCO
- mass density ([1]; x1 = 0.0809): 828.2 ± 1 kg/m3
- mass density ([1]; x1 = 0.1604): 835.1 ± 1 kg/m3
- mass density ([1]; x1 = 0.2392): 842.4 ± 1 kg/m3
- mass density ([1]; x1 = 0.3496): 853 ± 1 kg/m3
- mass density ([1]; x1 = 0.4399): 862.3 ± 1 kg/m3
- mass density ([1]; x1 = 0.5605): 875.5 ± 1 kg/m3
- mass density ([1]; x1 = 0.6497): 886.1 ± 1 kg/m3
- mass density ([1]; x1 = 0.7401): 897.4 ± 1 kg/m3
- mass density ([1]; x1 = 0.8504): 912.4 ± 1 kg/m3
- mass density ([1]; x1 = 0.9403): 925.7 ± 1.1 kg/m3
- mass density ([1]; x1 = 1): 935.1 ± 1 kg/m3

Structure (SMILES): CCCCCCCCCO [nonan-1-ol]
- mass density [2]: 824 ± 1 kg/m3

Structure (SMILES): CCCCCCCCCCO [decan-1-ol] + CCCCC(=O)O
- mass density ([1]; x2 = 0): 826.1 ± 1 kg/m3

Structure (SMILES): CCCCCCCCO [octan-1-ol]
- mass density [2]: 821.4 ± 1 kg/m3

Structure (SMILES): CCCCCCCCCCO [decan-1-ol]
- mass density [2]: 826.1 ± 1 kg/m3

Structure (SMILES): CCCCC(=O)O [pentanoic acid] + CCCCCCCO
- mass density ([1]; x1 = 0.0812): 826.5 ± 1 kg/m3
- mass density ([1]; x1 = 0.1601): 834.3 ± 1 kg/m3
- mass density ([1]; x1 = 0.24): 842.5 ± 1 kg/m3
- mass density ([1]; x1 = 0.3506): 854.2 ± 1 kg/m3
- mass density ([1]; x1 = 0.4398): 864 ± 1 kg/m3
- mass density ([1]; x1 = 0.5605): 877.8 ± 1 kg/m3
- mass density ([1]; x1 = 0.6496): 888.5 ± 1 kg/m3
- mass density ([1]; x1 = 0.7405): 899.7 ± 1 kg/m3
- mass density ([1]; x1 = 0.8501): 914.1 ± 1 kg/m3
- mass density ([1]; x1 = 0.9405): 926.5 ± 1 kg/m3
- mass density ([1]; x1 = 1): 935.1 ± 1 kg/m3

Structure (SMILES): CCCCCCO [hexan-1-ol] + CCCCC(=O)O
- mass density ([1]; x2 = 0): 815.1 ± 1 kg/m3

Structure (SMILES): CCCCCCCO [heptan-1-ol] + CCCCC(=O)O
- mass density ([1]; x2 = 0): 818.7 ± 1 kg/m3

Structure (SMILES): CCCCCCO [hexan-1-ol]
- mass density [2]: 815.1 ± 1 kg/m3

Structure (SMILES): CCCCC(=O)O [pentanoic acid] + CCCCCO
- mass density ([1]; x1 = 0.0807): 821.4 ± 1 kg/m3
- mass density ([1]; x1 = 0.1596): 831.9 ± 1 kg/m3
- mass density ([1]; x1 = 0.2398): 842.4 ± 1 kg/m3
- mass density ([1]; x1 = 0.3501): 856.7 ± 1 kg/m3
- mass density ([1]; x1 = 0.4401): 868.2 ± 1 kg/m3
- mass density ([1]; x1 = 0.5604): 883.1 ± 1 kg/m3
- mass density ([1]; x1 = 0.6498): 894 ± 1 kg/m3
- mass density ([1]; x1 = 0.7399): 904.7 ± 1 kg/m3
- mass density ([1]; x1 = 0.8498): 917.6 ± 1 kg/m3
- mass density ([1]; x1 = 0.9396): 928.1 ± 1 kg/m3
- mass density ([1]; x1 = 1): 935.1 ± 1 kg/m3

Structure (SMILES): CCCCCO [pentan-1-ol]
- mass density [2]: 810.8 ± 1 kg/m3

From the NIST ThermoML archive (doi:10.1021/acs.jced.8b01189)
